# Experimental data reported in patent US8791299B2, “Compounds for the inhibition of herpes viruses” (Universite Laval, priority 2009, dated 2014).
# Where two headings read alike, the source gives them in different places.
# Assays:
# HSV-1 = assay: Plaque reduction assay (PRA), HSV-1 in Vero cells; type: cell-based, herpes simplex 1; conditions: for antiviral activity by PRA: wild-type HSV-1; for in vitro antiviral activity (concluding summary, words): HSV-1; for factor by which less active than ACV (IC50): representative wild-type HSV strains, PRA
# Method: (§1) Top leading compounds were purchased from Sigma-Aldrich or ChemBridge for in vitro testing. On the day of the assay, compounds were prepared in DMSO at a concentration of 10 mM. Stock solutions were then diluted in Eagle's minimal essential medium (MEM) to the appropriate concentrations. ACV, GCV and FOS (prepared in MEM) were used as comparators for susceptible and resistant recombinant viruses and clinical isolates.
# (§2) Antiviral activity of compounds 1 to 8 was first tested at two concentrations, i.e. 1 μM and 10 μM, along with currently-available first-line drugs (ACV for HSV/VZV and GCV for CMV). Then, 50% inhibitory concentration (IC50) values were determined for the top leading compounds in comparison with ACV, GCV and FOS using a standard plaque reduction assay (PRA). Briefly, Vero cells or HFFs seeded in 24-well plates were inoculated with 40 plaque forming units (PFUs) of recombinant viruses or clinical isolates. Infected cells were incubated with serial drug concentrations for appropriate periods of time. Cells were fixed and stained. The number of plaques was counted in each well and expressed in percentage of the PFUs in no-drug control wells. Recombinant and clinical viral strains were considered resistant to a drug if their IC50 values were at least 2.5 times greater than that of the representative wild-type strains.
# HSV-2 = assay: Plaque reduction assay (PRA), HSV-2 in Vero cells; type: cell-based, herpes simplex 2; conditions: for antiviral activity by PRA: wild-type HSV-2; for in vitro antiviral activity (concluding summary, words): HSV-2; for factor by which less active than ACV (IC50): representative wild-type HSV strains, PRA
# Method: as §1, §2
# VZV = assay: Plaque reduction assay (PRA), VZV in HFFs; type: cell-based, varicella zoster virus; conditions: for antiviral activity by PRA: ACV-resistant VZV strains; for in vitro antiviral activity (concluding summary, words): VZV
# Method: as §1, §2
# CMV = assay: Plaque reduction assay (PRA), CMV in HFFs; type: cell-based, cytomegalovirus; conditions: for antiviral activity by PRA: wild-type CMV isolate
# Method: as §1, §2
# Vero cells = assay: MTS cell proliferation (cytotoxicity) assay on Vero cells; conditions: for therapeutic index (CC50/IC50): CC50 Vero cells, IC50 of the HSV-1 reference strain (H25); for toxicity (CC50) compared with ACV, GCV and FOS: Vero cells, MTS assay
# Method: (§3) Human foreskin fibroblasts (HFFs) and African green monkey kidney cells (Vero) were grown in MEM supplemented with 10% fetal bovine serum. Cells were maintained at 37° C. in a humidified 5% CO2 atmosphere. Vero cells and HFFs were used for propagation of viral strains and susceptibility assays for HSV-1/HSV-2 and VZV/CMV, respectively. Clinical strains H25 (HSV-1), HSV22 (HSV-2) as well as laboratory strains KOS(HSV-1), Ellen (VZV) and AD169 (CMV) were used as wild-type susceptible reference isolates. Clinical strains C119629 (HSV-1), C114093 (HSV-1), C80249 (HSV-1), L920062 (HSV-1), MS2 (HSV-2), C75134 (HSV-2), W-940012 (HSV-2), C72984 (HSV-2), D-900180 (HSV-2), M-890546 (HSV-2), P-920056 (HSV-2) and GB2000VZV (VZV) as well as laboratory strains Xbaf (CMV) and VQA3 (CMV) were used as drug (ACV/GCV/FOS)— resistant isolates. All clinical strains starting with the letter C originated from the Quebec City clinical virology laboratory.
# (§4) This assay is based on the use of solutions of a tetrazolium salt (3-(4,5-dimethylthiazol-2-yl)-5-(3-carboxymethoxyphenyl)-2-(4-sulphophenyl)-2H-tetrazolium, inner salt; MTS) and an electron coupling reagent (phenazine methosulfate; PMS). The tetrazolium salt is reduced by living cells to yield a formazan product that can be assayed colorimetrically. Briefly, HFFs and Vero cells were seeded in 96-well plates. After 24 h, media was aspirated and 100 μl of compounds diluted in MEM at concentrations up to 100 μM were added to wells in quaduplicate. After incubation at 37° C. for 3 days, 10 μl of a solution of MTS and PMS were added to each well. The plates were incubated at 37° C. for 2 h. The absorbance of the supernatant was read at a wavelength of 492 nm to measure cell viability compared to no-drug control wells. The drug concentration was plotted against the optical density of each sample and cellular toxicity (CC50) was calculated using GraphPad Prism version 5.0 (GraphPad Inc., La Jolla, Calif., USA).
# [1] = test system: Human foreskin fibroblasts (HFFs); assay: MTS cell proliferation (cytotoxicity) assay on HFFs; conditions: for toxicity (CC50) compared with ACV, GCV and FOS: HFFs, MTS assay
# Method: as §3, §4
# [2] = Parallel Artificial Membrane Permeability Assay (PAMPA); type: in vitro ADME; conditions: for Papp at 5 h: 5 h incubation, n=4, read-out: apparent permeability coefficient (Papp)
# Method: Passive membrane permeability was determined using Parallel Artificial Membrane Permeability Assay (PAMPA). Initial concentrations of compounds 2 and 3 used for this assay were 37 and 2.5 respectively. Membrane area was 0.3 cm^2. After a 5 h incubation, fractions were taken on both sides of the membrane and compound concentrations were determined by LC-MS/MS. The apparent permeability coefficient (Papp) was calculated using the equation Papp=(dQ/dtAc0), where dQ/dt is the appearance rate of compound in the acceptor compartment, A is the surface area of the transwell membrane, and co is the initial concentration in the donor compartment.
# [3] = Microsomal stability in rat liver microsomes; type: in vitro ADME; conditions: Sprague-Dawley; for half-life at 2 μM: rat liver microsomes 1 mg/ml, 2 μM compound, 37° C., NADPH, read-out: Half-life (t1/2); for CLint scaled at 2 μM: rat liver microsomes
# Method: Sprague-Dawley rat liver microsomes (concentration 1 mg/ml) were incubated at 37° C. with 2 μM of compounds 2 or 3 in PBS containing 5 mM MgCl2 and 1 mM NADPH. The antihypertensive drug reserpine was used as a reference compound. Aliquots of 50 μl were withdrawn at different time intervals and placed in 96-well plates containing 50 μL of acetonitrile on ice. Samples were then mixed and centrifuged at 3000 rpm and 10 μL were injected in a liquid chromatography system (Agilent 1100 Binary Pumps). The aliquots from liquid chromatography were subjected to mass spectrometry analysis on SCIEX API4000 with TurboIonSpray ionization source to determine the remaining percentage of the parent compound. Intrinsic clearance (Clint) estimates were determined using the rate of parent compound disappearance. The slope (-k) was determined by linear regression analysis from the linear portion of the natural logarithm of the test compound concentration versus time plot. The […] (t1/2) was calculated according to k=ln 2/t1/2. The microsomal Clint can be derived from the equation Clint=kVfu (mL/min/mg protein) where fu is the unbound fraction and V is the volume of the incubation expressed in milliliters per mg of microsomal protein. As fu is not known for the tested compounds, the calculation was performed with fu=1 (V). The Clint was also extrapolated to the whole liver protein.
# [4] = fu=1, read-out: intrinsic clearance (Clint) extrapolated to whole rat liver
compound,measurement,setting,value
3-chloro-N-(2-{2-[(E)-2-(1-hydroxynaphthalen-2-yl)ethenyl]hydrazinyl}-2-oxoethyl)benzamide [Compound C3-2],antiviral activity by PRA,HSV-1,not active
same,antiviral activity by PRA,HSV-2,not active
same,antiviral activity by PRA,VZV,not active
same,antiviral activity by PRA,CMV,not active
"O=C(CNC(=O)c1cccc2ccccc12)N/N=C/c1ccccc1O [Compound 2, N-{2-[(2E)-2-(2-hydroxybenzylidene)hydrazinyl]-2-oxoethyl}naphthalene-1-carboxamide]",IC50 value increases compared to the representative wild-type strains,"HSV-1; ACV- and/or FOS-resistant HSV-1 strains, Vero cells",0.7 to 1.7 fold
same,"in vitro antiviral activity (concluding summary, words)",HSV-1,highly active
same,factor by which less active than ACV (IC50),HSV-1,2 to 3 fold
same,IC50 value increases compared to the representative wild-type strains,"HSV-2; ACV- and/or FOS-resistant HSV-2 strains, Vero cells",0.7 to 1.7 fold
same,"in vitro antiviral activity (concluding summary, words)",HSV-2,highly active
same,factor by which less active than ACV (IC50),HSV-2,2 to 3 fold
same,"in vitro antiviral activity (concluding summary, words)",VZV,highly active
same,factor by which less active than ACV (IC50),"VZV; representative wild-type VZV strain, PRA",2 to 3 fold
same,therapeutic index (CC50/IC50),Vero cells,19.3
same,"toxicity (CC50) compared with ACV, GCV and FOS",Vero cells,somewhat more toxic
same,"toxicity (CC50) compared with ACV, GCV and FOS",[1],somewhat more toxic
same,permeability class,[2],high (high (Papp>10))
same,Papp at 5 h,[2],113 ± 11.7 nm/s
same,half-life at 2 μM,[3],33 min
same,CLint scaled at 2 μM,[3]; [4],2.22 L/h/kg
"C=CCc1cccc(/C=N/NC(=O)CNC(=O)c2cccc(Cl)c2)c1O [Compound 3, 3-chloro-N-(2-{(2E)-2-[2-hydroxy-3-(prop-2-en-1-yl)benzylidene]hydrazinyl}-2-oxoethyl)benzamide]","in vitro antiviral activity (concluding summary, words)",CMV; CMV,highly active
same,factor by which less active than GCV (IC50),"CMV; CMV reference strain, PRA",2 fold
same,IC50 value increases compared to the representative wild-type strain,"CMV; GCV- and/or FOS-resistant CMV strains, HFF cells",1 to 2 fold
same,"toxicity (CC50) compared with ACV, GCV and FOS",Vero cells,somewhat more toxic
same,therapeutic index (CC50/IC50),"[1]; CC50 HFFs, IC50 of the CMV reference strain (AD169)",6.6
same,"toxicity (CC50) compared with ACV, GCV and FOS",[1],somewhat more toxic
same,permeability class,[2],intermediate (intermediate (1<Papp<10))
same,Papp at 5 h,[2],34 ± 4.5 nm/s
same,half-life at 2 μM,[3],22 min
same,CLint scaled at 2 μM,[3]; [4],3.72 L/h/kg
"COc1ccc(O)c(C=NNC(=O)CNC(=O)c2cccc3ccccc23)c1 [Compound 9, N-(2-(2-(2-hydroxy-5-methoxybenzylidene)hydrazino)-2-oxoethyl)-1-naphthamide]",factor by which less active than ACV (IC50),HSV-1,3 to 4 fold
same,factor by which less active than ACV (IC50),HSV-2,3 to 4 fold
"O=C(CNC(=O)c1cccc2ccccc12)N/N=C/c1c(O)cccc1O [Compound C2.05, N-{2-[(2E)-2-(2,6-dihydroxybenzylidene)hydrazinyl]-2-oxoethyl}naphthalene-1-carboxamide]",antiviral activity by PRA,HSV-1,active against wild-type HSV-2 only
same,antiviral activity by PRA,HSV-2,active
same,antiviral activity by PRA,VZV,active against wild-type HSV-2 only
same,antiviral activity by PRA,CMV,not active
"O=C(CNC(=O)c1cccc2ccccc12)N/N=C/c1ncccc1O [Compound C2.11, N-(2-{(2E)-2-[(3-hydroxypyridin-2-yl)methylidene)hydrazinyl}-2-oxoethyl)naphthalene-1-carboxamide]",antiviral activity by PRA,HSV-1,not against HSV-1
same,antiviral activity by PRA,HSV-2,active
same,antiviral activity by PRA,VZV,active
same,antiviral activity by PRA,CMV,not active
"O=C(CNC(=O)c1cccc2ccccc12)N/N=C/c1ccc(F)cc1O [Compound C2.20, N-{2-[(2E)-2-(4-fluoro-2-hydroxybenzylidene)hydrazinyl]-2-oxoethyl}naphthalene-1-carboxamide]","in vitro antiviral activity (concluding summary, words)",HSV-1,retained excellent activity
same,antiviral activity by PRA,HSV-1,as active
same,"in vitro antiviral activity (concluding summary, words)",HSV-2,retained excellent activity
same,antiviral activity by PRA,HSV-2,as active
same,antiviral activity by PRA,VZV,as active
same,"in vitro antiviral activity (concluding summary, words)",VZV,retained excellent activity
same,antiviral activity by PRA,CMV,not active
same,therapeutic index (CC50/IC50),Vero cells,9.6
"Cc1cccc(/C=C/NNC(=O)CNC(=O)c2cccc(Cl)c2)c1O [Compound C3-1, 3-chloro-N-(2-{2-[(E)-2-(2-hydroxy-3-methylphenyl)ethenyl]hydrazinyl}-2-oxoethyl)benzamide]",antiviral activity by PRA,HSV-1,not active
same,antiviral activity by PRA,HSV-2,not active
same,antiviral activity by PRA,VZV,not active
same,antiviral activity by PRA,CMV,not active
"COC(=O)[C@H]1[C@H]2C[C@@H]3c4[nH]c5cc(OC)ccc5c4CCN3C[C@H]2C[C@@H](OC(=O)c2cc(OC)c(OC)c(OC)c2)[C@@H]1OC [reserpine, reference compound]",half-life at 2 μM,[3],43 min
same,CLint scaled at 2 μM,"[3]; reference compound, read-out: intrinsic clearance (Clint)",1.68 L/h/kg
